According to BindingDB's records for doi:10.1016/j.bioorg.2013.01.001 (University of Wisconsin-Madison, 2013):
pKi: −log10 of the molar value.

Target: Vitamin D3 receptor (Rattus norvegicus) (UniProt P13053)
Test: In vitro study, VDR binding assay were performed as previously described.

Chain of Vitamin D3 receptor (Rattus norvegicus) (P13053 whole entry, looked up): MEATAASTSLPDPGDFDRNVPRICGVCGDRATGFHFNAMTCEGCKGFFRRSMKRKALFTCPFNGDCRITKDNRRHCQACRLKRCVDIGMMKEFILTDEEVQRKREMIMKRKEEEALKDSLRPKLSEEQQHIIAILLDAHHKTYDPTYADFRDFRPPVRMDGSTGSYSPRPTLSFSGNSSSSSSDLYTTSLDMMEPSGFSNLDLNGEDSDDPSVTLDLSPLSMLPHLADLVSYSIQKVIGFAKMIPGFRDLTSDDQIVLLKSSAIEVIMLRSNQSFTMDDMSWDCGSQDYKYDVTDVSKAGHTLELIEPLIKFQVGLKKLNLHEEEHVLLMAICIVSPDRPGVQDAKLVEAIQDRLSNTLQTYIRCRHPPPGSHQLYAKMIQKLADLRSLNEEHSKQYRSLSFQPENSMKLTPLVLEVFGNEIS

| SMILES | pKi |
| --- | --- |
| C=C1[C@H](O)CC(=C/C=C2\CCC[C@@]3(C)C2CCC3[C@@H](C)CCCC)C[C@H]1O (some centres undefined) [Vitamin D analog, 9] | 9.52 |
| C=C1[C@H](O)CC(=C/C=C2\CCC[C@@]3(C)C2CCC3[C@H](C)CCCC)C[C@H]1O (some centres undefined) [Vitamin D analog, 8] | 9.52 |
| C=C1[C@H](O)CC(=C/C=C2\CCC[C@@]3(C)C2CCC3[C@H](C)CCCCO)C[C@H]1O (some centres undefined) [Vitamin D analog, 6] | 9.70 |
| C=C1[C@H](O)CC(=C/C=C2\CCC[C@@]3(C)C2CCC3[C@@H](C)CCCCO)C[C@H]1O (some centres undefined) [Vitamin D analog, 7] | 9.52 |
